# From ChEMBL document CHEMBL1138457, “Design and synthesis of an orally bioavailable and selective peptide epoxyketone proteasome inhibitor (PR-047)” (J Med Chem, 2009)
# The source made the active and inactive calls. The rule behind the calls is not given here.
# What was measured:
# [1] = Metabolic stability in human liver microsomes assessed as extraction ratio at 1 uM; format: ADME, Microsome
# [2] = Metabolic stability in mouse liver microsomes assessed as extraction ratio at 1 uM; format: ADME, Microsome
# [3] = Chemical stability in simulated intestinal fluid assessed as compound remaining at 4 uM after 15 mins; format: physicochemical; conditions: read-out: Stability
# [4] = Cytotoxicity against multidrug resistance transporter expressing doxorubicin resistant human MESSA cells assessed as cell viability after 72 hrs by CellTiter-Glo luminescent assay; format: functional, cell-based; conditions: MES-SA
# [5] = Inhibition of chymotrypsin-like activity of human 20S proteasome by spectrofluorimetry
# [6] = Cytotoxicity against human MESSA cells assessed as cell viability after 72 hrs by CellTiter-Glo luminescent assay; format: functional, cell-based; conditions: MES-SA
# [7] = test system: Mus musculus; experiment: Inhibition of chymotrypsin-like activity of 20S proteasome in BALB/c mouse adrenal gland at 20 mg/kg, po after 1 hr; format: functional; design: scale not given: the % may be the effect or the level left
# [8] = Solubility in ethanol-PS80 citrate buffer at pH 3.5 by HPLC analysis; format: physicochemical
# [9] = Inhibition of chymotrypsin-like activity of 20S proteasome in human MOLT4 cells after 1 hr by […]; format: cell-based; conditions: MOLT-4, 1 h
# [10] = test system: Mus musculus; experiment: Inhibition of chymotrypsin-like activity of 20S proteasome in BALB/c mouse adrenal gland 40 mg/kg, po after 1 hr; format: functional; design: scale not given: the % may be the effect or the level left
# [11] = species: Homo sapiens; experiment: Ratio of Kinact to Ki for chymotrypsin-like activity of human 26S proteasome by spectrophotometry; design: unit not given here
# [12] = test system: CT26; experiment: Antitumor activity against mouse CT26 cells xenografted in BALB/c mouse assessed as time to achieve significant decrease in tumor volume at 20 mg/kg, po administered 3 days post tumor challenge in weekly qdx2 schedule; format: functional, organism-based; design: dose 20 mg/kg
# [13] = molecular target: T1, Proteasome subunit beta type-8 (Homo sapiens, UniProt P28062)
# T1 sequence (P28062 whole entry): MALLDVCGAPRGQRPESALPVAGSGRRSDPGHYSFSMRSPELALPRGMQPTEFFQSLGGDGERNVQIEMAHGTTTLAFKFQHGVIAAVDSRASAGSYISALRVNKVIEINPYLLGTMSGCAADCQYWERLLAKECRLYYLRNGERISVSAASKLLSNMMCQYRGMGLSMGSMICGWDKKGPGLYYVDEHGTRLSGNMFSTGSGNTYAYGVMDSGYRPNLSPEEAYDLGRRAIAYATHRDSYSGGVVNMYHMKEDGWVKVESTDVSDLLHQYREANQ
# Description: Inhibition of chymotrypsin-like activity of LMP7 immunoproteasome by proteasome active site ELISA
# [14] = Toxicity in po dosed BALB/c mouse xenografted with mouse CT26 cells assessed as maximum tolerated dose; format: organism-based; conditions: in vivo
# [15] = Toxicity in po dosed BNX mouse xenografted with human RL cells assessed as maximum tolerated dose; format: organism-based; conditions: in vivo
# [16] = test system: Mus musculus; experiment: Inhibition of chymotrypsin-like activity of 20S proteasome in BALB/c mouse adrenal gland at 10 mg/kg, po after 1 hr; format: functional; design: scale not given: the % may be the effect or the level left
# [17] = test system: RL; experiment: Antitumor activity against human RL cells xenografted in BNX mouse assessed as time to achieve significant decrease in tumor volume at 20 mg/kg, po administered as weekly qdx2 schedule; format: functional, organism-based; design: dose 20 mg/kg
# [18] = Inhibition of chymotrypsin-like activity of human 20S proteasome beta 5 subunit by proteasome active site ELISA
# [19] = species: Homo sapiens; experiment: Selectivity for chymotrypsin-like activity over caspase-like activity of human 20S proteasome
# [20] = test system: RL; experiment: Antitumor activity against human RL cells xenografted BNX mouse assessed as time to achieve significant decrease in tumor volume at 5 mg/kg, iv administered as weekly qdx2 schedule; format: functional
# [21] = test system: Mus musculus; experiment: Inhibition of chymotrypsin-like activity of 20S proteasome in BALB/c mouse liver at 40 mg/kg, po after 1 hr; format: functional; design: scale not given: the % may be the effect or the level left
# [22] = species: Homo sapiens; experiment: Selectivity for chymotrypsin-like activity over trypsin-like activity of human 20S proteasome
# [23] = test system: Mus musculus; experiment: Inhibition of chymotrypsin-like activity of 20S proteasome in BALB/c mouse blood at 40 mg/kg, po after 1 hr; format: functional; design: scale not given: the % may be the effect or the level left
# [24] = Chemical stability in simulated gastric fluid assessed as compound remaining at 4 uM after 15 mins; format: physicochemical; conditions: read-out: Stability
# [25] = Toxicity in iv dosed BALB/c mouse xenografted with mouse CT26 cells assessed as maximum tolerated dose; format: organism-based; conditions: in vivo
# [26] = test system: CT26; experiment: Antitumor activity against mouse CT26 cells xenografted in BALB/c mouse assessed as time to achieve significant decrease in tumor volume at 5 mg/kg, iv administered on day 3 post tumor challenge for weekly qdx2 schedule; format: functional
hepatic extraction ratio at 1 µM [1] [dimensionless ratio],hepatic extraction ratio at 1 µM [2] [dimensionless ratio],"remaining at 0.25 h, 4 µM [3] [%]",IC50 [5] [nM],solubility [8] [µg/mL],Ratio [11],Structure (SMILES),IC50 [4] [nM],IC50 [6] [nM],Activity [7] [%],IC50 [9] [nM],Activity [10] [%],IC50 [18] [nM],further results
0.28,0.48,100,19,1240,,COC[C@H](NC(=O)c1cc(C)on1)C(=O)N[C@@H](C)C(=O)N[C@@H](CC(C)C)C(=O)[C@@]1(C)CO1,276,28,8,57,,,
0.91,0.96,90,9.3,750,58600,COC[C@H](NC(=O)c1cc(C)on1)C(=O)N[C@@H](Cc1ccccc1)C(=O)N[C@@H](CC(C)C)C(=O)[C@@]1(C)CO1,75,40,33,36,9,,
,,40,94,≥ 1000,,CC(C)C[C@H](NC(=O)c1cc(CN2CCN(C)CC2)on1)C(=O)N[C@@H](Cc1ccccc1)C(=O)N[C@@H](CC(C)C)C(=O)[C@@]1(C)CO1,> 1000,189,,124,101,,
0.54,0.67,70,11,5880,31800,COC[C@H](NC(=O)c1cc(C)on1)C(=O)N[C@@H](COC)C(=O)N[C@@H](CC(C)C)C(=O)[C@@]1(C)CO1,145,22,9,48,,17,IC50 [13]: 238 nM; Activity [16]: 21%
,,60,1.8,60,50900,Cc1cc(C(=O)N[C@@H](CC(C)C)C(=O)N[C@@H](Cc2ccccc2)C(=O)N[C@@H](CC(C)C)C(=O)[C@@]2(C)CO2)no1,47,28,,17,,,
,,60,4.1,1480,28300,CC(C)C[C@H](NC(=O)c1cc(CN2CCOCC2)on1)C(=O)N[C@@H](Cc1ccccc1)C(=O)N[C@@H](CC(C)C)C(=O)[C@@]1(C)CO1,70,22,,11,29,,
,,45,57,,7900,CC(C)C[C@H](NC(=O)CN1CCOCC1)C(=O)N[C@@H](Cc1ccccc1)C(=O)N[C@@H](CC(C)C)C(=O)[C@@]1(C)CO1,308,35,,45,82,,"hepatic extraction ratio at 1 µM ([2]; read-out: ERH): 0.95; Activity [21]: 22%; Activity [23]: 37%; remaining at 0.25 h, 4 µM [24]: 90%"

Structure (SMILES),hepatic extraction ratio at 1 µM [1] [dimensionless ratio],hepatic extraction ratio at 1 µM [2] [dimensionless ratio],"remaining at 0.25 h, 4 µM [3] [%]",IC50 [5] [nM],solubility [8] [µg/mL],Ratio [11],IC50 [4] [nM],IC50 [6] [nM],Activity [7] [%],IC50 [9] [nM],Activity [10] [%],IC50 [18] [nM],further results
CCOc1cc(C(=O)N[C@@H](COC)C(=O)N[C@@H](COC)C(=O)N[C@@H](Cc2ccccc2)C(=O)[C@@]2(C)CO2)no1,0.77,0.77,85,1.4,,,54,4.3,,3,,3.7,Activity [12]: inactive; IC50 [13]: 5 nM; MTD [14]: 20 mg/kg; MTD [15]: 20 mg/kg; Activity [16]: 3%; Activity [17]: inactive
CC(C)C[C@H](NC(=O)[C@H](CCc1ccccc1)NC(=O)CN1CCOCC1)C(=O)N[C@@H](Cc1ccccc1)C(=O)N[C@@H](CC(C)C)C(=O)[C@@]1(C)CO1 [CARFILZOMIB],,,< 5,5.7,,,413,18,,5.1,83,5.2,"fold change (FC) [19]: > 100; Activity [20]: 35 days; Activity [21]: 109%; fold change (FC) [22]: > 100; Activity [23]: 77%; remaining at 0.25 h, 4 µM [24]: 15%; MTD [25]: 5 mg/kg; Activity [26]: 26 days"
